SMILES strings stand for the structures.

The target of the first experiment is T1, human PAH with the R408W mutation (A375 R408W cells) (Homo sapiens, UniProt P00439, R408W).
T1 construct: expressed in transfected cells
T1 sequence (P00439 1-452 R408W): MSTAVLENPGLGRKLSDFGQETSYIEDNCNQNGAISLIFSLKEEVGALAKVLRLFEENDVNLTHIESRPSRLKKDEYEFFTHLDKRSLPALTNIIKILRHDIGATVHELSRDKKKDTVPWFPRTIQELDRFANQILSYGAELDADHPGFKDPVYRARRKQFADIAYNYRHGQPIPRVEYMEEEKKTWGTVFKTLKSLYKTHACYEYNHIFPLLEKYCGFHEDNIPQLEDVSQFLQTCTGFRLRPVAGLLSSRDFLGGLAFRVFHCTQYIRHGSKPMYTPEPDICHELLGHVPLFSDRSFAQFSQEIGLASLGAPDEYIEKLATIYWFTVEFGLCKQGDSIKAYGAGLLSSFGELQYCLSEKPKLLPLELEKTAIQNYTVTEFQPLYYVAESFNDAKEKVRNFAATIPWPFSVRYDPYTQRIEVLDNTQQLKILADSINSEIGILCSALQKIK
As to the kind of experiment: Cell Based Phenylalanine Flux Assay. The following applies: A375 R408W cells; 24 hrs with compound, then 20 μM sepiapterin and 800 μM 13C9,15N-Phenylalanine for 4 hours; 13C-Tyrosine by LC-MS; average where tested multiple times. In outline:
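LC-MS quantitation of 13C-tyrosine in media gave AC50 values. Stable A375 R408W PAH cells were preincubated 24 h with compound, then fed 800 μM labelled Phe plus 20 μM sepiapterin for 4 h. Dose curves were 10-point, tested in duplicate, averaged over repeat runs.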
A word on the AC50: it is the concentration giving half of the maximal activity seen. In the case of `Cc1ncoc1C(=O)N1Cc2[nH]cnc2[C@@H]1c1nc2ccccc2o1` [Example 942, (R)-(4-(benzo[d]oxazol-2-yl)-4,6-dihydropyrrolo[3,4-d]imidazol-5(1H)-yl)(4-methyloxazol-5-yl)methanone], the half-maximal activity concentration (AC50) lay in the range of 1 to 5 µM.

With `O=C(c1ocnc1C(F)F)N1CC2(CC2)c2[nH]cnc2[C@H]1c1nc2cccc(F)c2o1` [Example 911, (S)-(4-(difluoromethyl)oxazol-5-yl)(4′-(7-fluorobenzo[d]oxazol-2-yl)spiro[cyclopropane-1,7′-imidazo[4,5-c]pyridin]-5′(1′H,4′H,6′H)-yl)methanone], the concentration at half-maximal activity (AC50) was no more than 0.5 µM.

As to `Cn1ccc(-c2nnc(C(=O)N3CCc4[nH]cnc4[C@H]3c3nc4c(F)ccc(F)c4o3)o2)n1` [Example 813], the AC50 is no more than 0.5 µM.

As to `O=C(c1ocnc1C(F)(F)F)N1CCc2[nH]cnc2[C@@H]1c1nc2c(F)cccc2o1` [Example 168, (R)-(4-(4-fluorobenzo[d]oxazol-2-yl)-6,7-dihydro-1H-imidazo[4,5-c]pyridin-5(4H)-yl)(4-(trifluoromethyl)oxazol-5-yl)methanone], the concentration at half-maximal activity (AC50) was in the range of 1 to 5 µM.

As for `Cn1cc(-c2ccc3c(C(=O)N4CCc5[nH]cnc5[C@@H]4c4nc5cccc(F)c5o4)cnn3c2)cn1` [Example 384, (R)-(4-(7-fluorobenzo[d]oxazol-2-yl)-6,7-dihydro-1H-imidazo[4,5-c]pyridin-5(4H)-yl)(6-(1-methyl-1H-pyrazol-4-yl)pyrazolo[1,5-a]pyridin-3-yl)methanone], the AC50 was in the range of 1 to 5 µM.

As to `O=C(c1oc(-c2cncnc2)nc1C(F)F)N1CCc2[nH]cnc2[C@H]1c1nc2cc(F)ccc2o1` [Example 406, (S)-(4-(difluoromethyl)-2-(pyrimidin-5-yl)oxazol-5-yl)(4-(5-fluorobenzo[d]oxazol-2-yl)-6,7-dihydro-1H-imidazo[4,5-c]pyridin-5(4H)-yl)methanone], the concentration at half-maximal activity (AC50) is no more than 0.5 µM.

With `Cn1nccc1-c1nnc(C(=O)N2CCc3[nH]cnc3[C@H]2c2nc3cc(F)ccc3o2)o1` [Example 131, (S)-(4-(5-fluorobenzo[d]oxazol-2-yl)-6,7-dihydro-1H-imidazo[4,5-c]pyridin-5(4H)-yl)(5-(1-methyl-1H-pyrazol-5-yl)-1,3,4-oxadiazol-2-yl)methanone], the AC50 is 0.5 to 1 µM.

As to `COc1ccc(-c2nnc(C(=O)N3CCc4[nH]cnc4[C@H]3c3nc4cc(C)ccc4o3)o2)nc1` [Example 677, (S)-(5-(5-methoxypyridin-2-yl)-1,3,4-oxadiazol-2-yl)(4-(5-methylbenzo[d]oxazol-2-yl)-6,7-dihydro-1H-imidazo[4,5-c]pyridin-5(4H)-yl)methanone], the AC50 is no more than 0.5 µM.

Consider `O=C(c1ccnn1C(F)F)N1CCc2[nH]cnc2[C@@H]1c1nc2ccc(F)cc2o1` [Example 190, (R)-(1-(difluoromethyl)-1H-pyrazol-5-yl)(4-(6-fluorobenzo[d]oxazol-2-yl)-6,7-dihydro-1H-imidazo[4,5-c]pyridin-5(4H)-yl)methanone], for which the AC50 lay in the range of 1 to 5 µM.

In the case of `O=C(c1nnc(-c2cnccn2)o1)N1CCc2[nH]cnc2[C@H]1c1nc2cc(F)ccc2o1` [Example 628, (S)-(4-(5-fluorobenzo[d]oxazol-2-yl)-6,7-dihydro-1H-imidazo[4,5-c]pyridin-5(4H)-yl)(5-(pyrazin-2-yl)-1,3,4-oxadiazol-2-yl)methanone], the AC50 was in the range of 1 to 5 µM.

Consider `CC(C)(O)c1nc(C(F)F)c(C(=O)N2CCc3[nH]cnc3[C@@H]2c2nc3cccc(Br)c3o2)o1` [Example 459, (R)-(4-(7-bromobenzo[d]oxazol-2-yl)-6,7-dihydro-1H-imidazo[4,5-c]pyridin-5(4H)-yl)(4-(difluoromethyl)-2-(2-hydroxypropan-2-yl)oxazol-5-yl)methanone], for which the concentration at half-maximal activity (AC50) was no more than 0.5 µM.

On to `O=C(c1oc(C2(O)CCC2)nc1C(F)F)N1CCc2[nH]cnc2[C@@H]1c1nc2cc(F)ccc2o1` [Example 690, (R)-(4-(difluoromethyl)-2-(1-hydroxycyclobutyl)oxazol-5-yl)(4-(5-fluorobenzo[d]oxazol-2-yl)-6,7-dihydro-1H-imidazo[4,5-c]pyridin-5(4H)-yl)methanone], for which the half-maximal activity concentration (AC50) is 1 to 5 µM.

On to `O=C(c1oc(-c2ccncc2)nc1C(F)F)N1CCc2[nH]cnc2[C@H]1c1nc2cccc(F)c2o1` [Example 560, (S)-(4-(difluoromethyl)-2-(pyridin-4-yl)oxazol-5-yl)(4-(7-fluorobenzo[d]oxazol-2-yl)-6,7-dihydro-1H-imidazo[4,5-c]pyridin-5(4H)-yl)methanone], for which the half-maximal activity concentration (AC50) is no more than 0.5 µM.

`Cc1ccc2c(C(=O)N3CCc4[nH]cnc4[C@H]3c3nc4cccc(F)c4o3)cnn2c1` [Example 323, (S)-(4-(7-fluorobenzo[d]oxazol-2-yl)-6,7-dihydro-1H-imidazo[4,5-c]pyridin-5(4H)-yl)(6-methylpyrazolo[1,5-a]pyridin-3-yl)methanone]: the half-maximal activity concentration (AC50) was no more than 0.5 µM.

In the case of `Cc1nc([C@H](C)O)oc1C(=O)N1CCc2[nH]cnc2[C@H]1c1nc2ccc(F)cc2o1` [Example 241, ((S)-4-(6-fluorobenzo[d]oxazol-2-yl)-6,7-dihydro-1H-imidazo[4,5-c]pyridin-5(4H)-yl)(2-((S)-1-hydroxyethyl)-4-methyloxazol-5-yl)methanone], the AC50 lay in the range of 1 to 5 µM.

On to `CC(C)(O)c1nc(C(F)F)c(C(=O)N2CCc3[nH]cnc3[C@H]2c2nc3cccc(OC(F)(F)F)c3o2)o1` [Example 529, (S)-(4-(difluoromethyl)-2-(2-hydroxypropan-2-yl)oxazol-5-yl)(4-(7-(trifluoromethoxy)benzo[d]oxazol-2-yl)-6,7-dihydro-1H-imidazo[4,5-c]pyridin-5(4H)-yl)methanone], for which the AC50 is no more than 0.5 µM.

`O=C(c1ocnc1CC(F)F)N1CCc2[nH]cnc2[C@@H]1c1nc2cccc(F)c2o1` [Example 864, (R)-(4-(2,2-difluoroethyl)oxazol-5-yl)(4-(7-fluorobenzo[d]oxazol-2-yl)-6,7-dihydro-1H-imidazo[4,5-c]pyridin-5(4H)-yl)methanone]: the concentration at half-maximal activity (AC50) was no more than 0.5 µM.

Take `O=C(c1oc(-c2cccnc2)nc1C(F)F)N1CCc2[nH]cnc2[C@H]1c1nc2cc(F)ccc2o1` [Example 420, (S)-(4-(difluoromethyl)-2-(pyridin-3-yl)oxazol-5-yl)(4-(5-fluorobenzo[d]oxazol-2-yl)-6,7-dihydro-1H-imidazo[4,5-c]pyridin-5(4H)-yl)methanone]: the AC50 was no more than 0.5 µM.

For `O=C(c1oc(COC(F)(F)F)nc1C(F)F)N1CCc2[nH]cnc2[C@@H]1c1nc2cc(F)ccc2o1` [Example 116, (R)-(4-(difluoromethyl)-2-((trifluoromethoxy)methyl)oxazol-5-yl)(4-(5-fluorobenzo[d]oxazol-2-yl)-6,7-dihydro-1H-imidazo[4,5-c]pyridin-5(4H)-yl)methanone], the half-maximal activity concentration (AC50) lay in the range of 1 to 5 µM.

`Cc1ccc(F)c2nc([C@H]3c4nc[nH]c4CCN3C(=O)c3ocnc3C(F)F)oc12` [Example 744, (R)-(4-(difluoromethyl)oxazol-5-yl)(4-(4-fluoro-7-methylbenzo[d]oxazol-2-yl)-6,7-dihydro-1H-imidazo[4,5-c]pyridin-5(4H)-yl)methanone]: the half-maximal activity concentration (AC50) is no more than 0.5 µM.

Take `[2H][C@@]1(c2nc3cccc(F)c3o2)c2nc[nH]c2CCN1C(=O)c1ocnc1C(F)F` [Example 899, (S)-(4-(difluoromethyl)oxazol-5-yl)(4-deuterium-4-(7-fluorobenzo[d]oxazol-2-yl)-6,7-dihydro-1H-imidazo[4,5-c]pyridin-5(4H)-yl)methanone]: the AC50 was no more than 0.5 µM.

`O=C(c1ocnc1C(F)F)N1CCc2[nH]cnc2[C@H]1c1nc2cccc(C(F)(F)F)c2o1` [Example 493, (S)-(4-(difluoromethyl)oxazol-5-yl)(4-(7-(trifluoromethyl)benzo[d]oxazol-2-yl)-6,7-dihydro-1H-imidazo[4,5-c]pyridin-5(4H)-yl)methanone]: the concentration at half-maximal activity (AC50) is no more than 0.5 µM.

`COc1cccc2oc([C@@H]3c4nc[nH]c4CCN3C(=O)c3nnc(-c4ccccn4)o3)nc12` [Example 624, (S)-(4-(4-methoxybenzo[d]oxazol-2-yl)-6,7-dihydro-1H-imidazo[4,5-c]pyridin-5(4H)-yl)(5-(pyridin-2-yl)-1,3,4-oxadiazol-2-yl)methanone]: the AC50 is no more than 0.5 µM.

Staying with this experiment, now noted: A375 cells expressing R408W PAH; 24 hrs with compound, then 20 μM sepiapterin and 800 μM 13C9,15N-Phenylalanine for 4 hours; 13C-Tyrosine by LC-MS; average where tested multiple times.
Consider `NCc1ccc2c(C(=O)N3CCc4[nH]cnc4C3c3nc4cc(F)ccc4o3)cnn2c1` (stereo not drawn), for which the half-maximal activity concentration (AC50) lay in the range of 1 to 5 µM.

`Cc1cccc2nc([C@H]3c4nc[nH]c4CCN3C(=O)c3cnc(C(C)(C)O)o3)oc12` (single isomer, unassigned): the concentration at half-maximal activity (AC50) was no less than 5 µM.

Consider `COC(=O)Nc1ccc2c(C(=O)N3CCc4[nH]cnc4C3c3nc4cc(F)ccc4o3)cnn2c1` (stereo not drawn), for which the AC50 was 1 to 5 µM.

`O=C(c1ccn[nH]1)N1CCc2[nH]cnc2C1c1nc2cc(F)ccc2o1` (stereo not drawn): the AC50 was no less than 5 µM.

Consider `O=C1CN(CCc2ccc3c(C(=O)N4CCc5[nH]cnc5C4c4nc5cc(F)ccc5o4)cnn3c2)CCN1` (stereo not drawn), for which the concentration at half-maximal activity (AC50) was 1 to 5 µM.

On to `Cc1nnc(C(=O)N2CCc3[nH]cnc3C2c2nc3cc(F)ccc3o2)o1` (stereo not drawn), for which the AC50 was 1 to 5 µM.

Consider `Cc1nc(C(C)(C)O)oc1C(=O)N1CCc2[nH]cnc2C1c1nc2ccc(F)cc2o1` (stereo not drawn), for which the concentration at half-maximal activity (AC50) lay within 1 to 5 µM.

The record behind these values is patent publication US20250171437A1 (Agios Pharmaceuticals,Inc., priority 2022, published 2025).
